Measured values published in patent US12110286B2, “Benzimidazolone derived inhibitors of BCL6” (Cancer Research Technology Limited, priority 2017, dated 2024).

Target: Trx-6×His-BCL6 (human BCL6 BTB domain covering amino-acid sequence 5-129) (Homo sapiens (Human), UniProt P41182)
Assay: HTRF in vitro assay (BCL6 / BCOR-AF633 peptide)
Type: binding
Experimental: The % inhibition at each concentration was calculated by normalising FRET ratio to the appropriate high (DMSO with all reagents) and low (DMSO without BCL6) controls.

[1] = initially generated data, 10 nM Trx-6×His-BCL6, 300 nM BCOR-AF633 peptide, 1 nM anti-6×His-Terbium cryptate
[2] = further generated data, 1 nM Trx-6×His-BCL6, 300 nM BCOR-AF633 peptide, 0.5 nM anti-6×His-Terbium cryptate

Compound | HTRF pIC50 [1] | HTRF pIC50 [2]
C#CCCNC(=O)c1cc(Nc2ccc3c(c2)n(CCC(C)C(=O)OC)c(=O)n3C)c(C#N)c(Cl)n1 (stereo not drawn) [Example 7b, Methyl 4-[6-[[6-(but-3-ynylcarbamoyl)-2-chloro-3-cyano-4-pyridyl]amino]-3-methyl-2-oxo-benzimidazol-1-yl]-2-methyl-butanoate] | 5.84 | –
COC(=O)C(C)CCn1c(=O)n(C)c2ccc(Nc3cc(C(=O)N(C)C)nc(Cl)c3C#N)cc21 (stereo not drawn) [Example 7c, Methyl 4-[6-[[2-chloro-3-cyano-6-(dimethylcarbamoyl)-4-pyridyl]amino]-3-methyl-2-oxo-benzimidazol-1-yl]-2-methyl-butanoate] | 5.57 | –
CN(C)CCNC(=O)c1cc(Nc2ccc3c(c2)n(C)c(=O)n3C)c(C#N)c(Cl)n1 [Example 7d, 6-Chloro-5-cyano-N-[2-(dimethylamino)ethyl]-4-[(1,3-dimethyl-2-oxo-benzimidazol-5-yl)amino]pyridine-2-carboxamide:formic acid (1:1)] | 5.50 | –
CCOC(=O)c1cc(Nc2ccc3c(c2)n(CCC(C)C(=O)OC)c(=O)n3C)n2nccc2n1 (stereo not drawn) [Example 8, Ethyl 7-[[3-(4-methoxy-3-methyl-4-oxo-butyl)-1-methyl-2-oxo-benzimidazol-5-yl]amino]pyrazolo[1,5-a]pyrimidine-5-carboxylate] | 5.83 | 6.01
COC(=O)C(O)CCn1c(=O)n(C)c2ccc(Nc3ccnc(Cl)c3C#N)cc21 (stereo not drawn) [Example 9, Methyl 4-[6-[(2-chloro-3-cyano-4-pyridyl)amino]-3-methyl-2-oxo-benzimidazol-1-yl]-2-hydroxy-butanoate] | 5.83 | 5.97
Cn1c(=O)n(CC(O)C(C)(C)O)c2cc(Nc3ccnc(Cl)c3C#N)ccc21 (stereo not drawn) [Example 10a, 2-Chloro-4-[[3-(2,3-dihydroxy-3-methyl-butyl)-1-methyl-2-oxo-benzimidazol-5-yl]amino]pyridine-3-carbonitrile] | 5.81 | 5.93
COC(=O)C(CCn1c(=O)n(C)c2ccc(Nc3ccnc(Cl)c3C#N)cc21)OC (stereo not drawn) [Example 10b] | 5.71 | 5.57
CCOC(CCn1c(=O)n(C)c2ccc(Nc3ccnc(Cl)c3C#N)cc21)C(=O)OC (stereo not drawn) [Example 10c] | 5.65 | 5.69
COC(=O)CCCn1c(=O)n(C)c2ccc(Nc3ccnc(Cl)c3C#N)cc21 [Example 10d] | 5.55 | 5.29
COC(=O)C(CCn1c(=O)n(C)c2ccc(Nc3ccnc(Cl)c3C#N)cc21)OCC1CC1 (stereo not drawn) [Example 10e] | 5.52 | 5.38
Cn1c(=O)n(CC(O)Cn2cccn2)c2cc(Nc3ccnc(Cl)c3C#N)ccc21 (stereo not drawn) [Example 10f] | 5.49 | 5.48
COC(=O)C1CCCC1Cn1c(=O)n(C)c2ccc(Nc3ccnc(Cl)c3C#N)cc21 (stereo not drawn) [Example 11, Methyl 2-[[6-[(2-chloro-3-cyano-4-pyridyl)amino]-3-methyl-2-oxo-benzimidazol-1-yl]methyl]cyclopentanecarboxylate] | 5.71 | 5.72
COC(=O)[C@H](N)CCn1c(=O)n(C)c2ccc(Nc3ccnc(Cl)c3C#N)cc21 [Example 12, Methyl (2R)-2-amino-4-[6-[(2-chloro-3-cyano-4-pyridyl)amino]-3-methyl-2-oxo-benzimidazol-1-yl]butanoate] | 5.79 | 5.68
CC(=O)NC(C)CCn1c(=O)n(C)c2ccc(Nc3ccnc(Cl)c3C#N)cc21 (stereo not drawn) [Example 13, N-[3-[6-[(2-Chloro-3-cyano-4-pyridyl)amino]-3-methyl-2-oxo-benzimidazol-1-yl]-1-methyl-propyl]acetamide] | 5.75 | –
CCNC(=O)c1cc(Nc2ccc3c(c2)n(CCC(C)(C)O)c(=O)n3C)c(Cl)cn1 [Example 14, 5-Chloro-N-ethyl-4-[[3-(3-hydroxy-3-methyl-butyl)-1-methyl-2-oxo-benzimidazol-5-yl]amino]pyridine-2-carboxamide] | 6.05 | 6.29
CCOC(=O)c1cnn(-c2ncc(Cl)c(Nc3ccc4c(c3)n(CCC(C)(C)O)c(=O)n4C)n2)c1 [Example 15b] | – | 5.96
Cc1cc(C)n(-c2ncc(Cl)c(Nc3ccc4c(c3)n(CCC(C)(O)CCO)c(=O)n4C)n2)n1 (stereo not drawn) [Example 15e] | – | 6.02

Compound | HTRF pIC50 [1] | HTRF pIC50 [2]
CCC(C)(O)CCn1c(=O)n(C)c2ccc(Nc3nc(-n4nc(C)cc4C)ncc3Cl)cc21 (stereo not drawn) [Example 15f] | – | 6.00
CN(C)c1ncc(Cl)c(Nc2ccc3c(c2)n(CCC(C)(C)O)c(=O)n3C)n1 [Example 15g] | – | 5.89
Cc1cc(C)n(-c2ncc(Cl)c(Nc3ccc4c(c3)[nH]c(=O)n4C)n2)n1 [Example 15h] | – | 5.86
COCC(C)(O)CCn1c(=O)n(C)c2ccc(Nc3nc(-n4nc(C)cc4C)ncc3Cl)cc21 (stereo not drawn) [Example 15j] | – | 5.76
CN(C)C(=O)C1CCN(c2ncc(Cl)c(Nc3ccc4c(c3)n(CCC(C)(O)CCO)c(=O)n4C)n2)CC1 (stereo not drawn) [Example 15k] | – | 6.27
Cn1c(=O)n(CCC(C)(C)O)c2cc(Nc3nc(-n4cccn4)ncc3Cl)ccc21 [Example 15m] | – | 6.08
Cc1cc(C)n(-c2cc(Nc3ccc4c(c3)n(CCC(C)(C)O)c(=O)n4C)c(C#N)cn2)n1 [Example 15o] | – | 5.88
Cc1cc(C)n(-c2nc(C)c(Cl)c(Nc3ccc4c(c3)n(CCC(C)(C)O)c(=O)n4C)n2)n1 [Example 15p] | – | 5.82
Cc1cc(C)n(-c2ncc(Br)c(Nc3ccc4c(c3)n(CCC(C)(C)O)c(=O)n4C)n2)n1 [Example 15q] | – | 6.09
Cn1c(=O)n(CCC(C)(C)O)c2cc(Nc3nc(N4CCCCC4)ncc3Cl)ccc21 [Example 20d] | – | 5.92
CC(C)Nc1ncc(Cl)c(Nc2ccc3c(c2)n(CCC(C)(C)O)c(=O)n3C)n1 [Example 20f] | – | 5.99
CCN(C)c1ncc(Cl)c(Nc2ccc3c(c2)n(CCC(C)(C)O)c(=O)n3C)n1 [Example 20i] | – | 6.17
C[C@@H]1CN(c2ncc(Cl)c(Nc3ccc4c(c3)n(CCC(C)(C)O)c(=O)n4C)n2)C[C@H](C)O1 [Example 20j] | – | 6.80
Cn1c(=O)n(CCC(C)(C)O)c2cc(Nc3nc(N4CC(C(F)(F)F)OC(C)(C)C4)ncc3Cl)ccc21 (stereo not drawn) [Example 20k] | – | 6.11
Cn1c(=O)n(CCC(C)(C)O)c2cc(Nc3nc(-n4cc(C(F)(F)F)cn4)ncc3Cl)ccc21 [Example 20s] | – | 6.26
Cn1c(=O)n(CCC(C)(C)O)c2cc(Nc3nc(N4CCOCC4)ncc3Cl)ccc21 [Example 20t] | – | 6.51

Other lines, results leading:

HTRF pIC50 [1] | HTRF pIC50 [2] | Compound
– | 6.38 | Cc1ccn(-c2ncc(Cl)c(Nc3ccc4c(c3)n(CCC(C)(C)O)c(=O)n4C)n2)n1 [Example 16a, 5-((5-chloro-2-(3-methyl-1H-pyrazol-1-yl)pyrimidin-4-yl)amino)-3-(3-hydroxy-3-methylbutyl)-1-methyl-1,3-dihydro-2H-benzo[d]imidazol-2-one]
– | 6.31 | Cc1ccnn1-c1ncc(Cl)c(Nc2ccc3c(c2)n(CCC(C)(C)O)c(=O)n3C)n1 [Example 16b, 5-((5-chloro-2-(5-methyl-1H-pyrazol-1-yl)pyrimidin-4-yl)amino)-3-(3-hydroxy-3-methylbutyl)-1-methyl-1,3-dihydro-2H-benzo[d]imidazol-2-one]
– | 5.90 | Cn1c(=O)n(CCC2(O)CCC2)c2cc(Nc3ccnc(Cl)c3C#N)ccc21 [Example 18a, 2-chloro-4-((3-(2-(1-hydroxycyclobutyl)ethyl)-1-methyl-2-oxo-2,3-dihydro-1H-benzo[d]imidazol-5-yl)amino)nicotinonitrile]
– | 5.31 | Cn1c(=O)n(CCS(C)(=O)=O)c2cc(Nc3ccnc(Cl)c3C#N)ccc21 [Example 18b, 2-chloro-4-((1-methyl-3-(2-(methylsulfonyl)ethyl)-2-oxo-2,3-dihydro-1H-benzo[d]imidazol-5-yl)amino)nicotinonitrile]
– | 5.83 | CCC(=O)CCn1c(=O)n(C)c2ccc(Nc3ccnc(Cl)c3C#N)cc21 [Example 19a, 2-chloro-4-((1-methyl-2-oxo-3-(3-oxopentyl)-2,3-dihydro-1H-benzo[d]imidazol-5-yl)amino)nicotinonitrile]
– | 5.55 | CC1OCCC1Cn1c(=O)n(C)c2ccc(Nc3ccnc(Cl)c3C#N)cc21 (stereo not drawn) [Example 19b]
– | 5.45 | Cn1c(=O)n(CCC2(C)OCCO2)c2cc(Nc3ccnc(Cl)c3C#N)ccc21 [Example 19c]
– | 5.44 | Cn1c(=O)n(CC2CCN2C(=O)OC(C)(C)C)c2cc(Nc3ccnc(Cl)c3C#N)ccc21 (stereo not drawn) [Example 19d]
– | 6.01 | CN1CC(Cn2c(=O)n(C)c3ccc(Nc4nc(N5CC(C)(C)OC(C)(C)C5)ncc4Cl)cc32)(C(C)(C)O)OC1=O (stereo not drawn) [Example 20b]
– | 6.39 | CCC1(Cn2c(=O)n(C)c3ccc(Nc4nc(N5C[C@@H](C)O[C@@H](C)C5)ncc4Cl)cc32)CN(C)C(=O)O1 (stereo partly drawn) [Example 20l]
– | 5.97 | CCC1(Cn2c(=O)n(C)c3ccc(Nc4nc(-n5ccc(C(F)(F)F)n5)ncc4Cl)cc32)CN(C)C(=O)O1 (stereo not drawn) [Example 20m]
– | 6.42 | CCC1(Cn2c(=O)n(C)c3ccc(Nc4nc(N5C[C@@H](C)O[C@@H](C)C5)ncc4Cl)cc32)CNC(=O)O1 (stereo partly drawn) [Example 20n]
– | 6.22 | CCC1(Cn2c(=O)n(C)c3ccc(Nc4nc(-n5ccc(C(F)(F)F)n5)ncc4Cl)cc32)CNC(=O)O1 (stereo not drawn) [Example 20o]
– | 6.44 | C[C@@H]1CN(c2ncc(Cl)c(Nc3cc4c(cc3F)n(C)c(=O)n4CCC(C)(C)O)n2)C[C@H](C)O1 [Example 20p]
– | 5.87 | C[C@@H]1C[C@H](C)CN(c2ncc(Cl)c(Nc3cc4c(cc3F)n(C)c(=O)n4CCC(C)(C)O)n2)C1.O=CO [Example 20q]
– | 6.53 | Cn1c(=O)n(CCC(C)(C)O)c2cc(Nc3nc(-n4ccc(C(F)(F)F)n4)ncc3Cl)c(F)cc21 [Example 20r]
